Test results: ChEMBL document CHEMBL1152457, “Antimicrobial drug resistance of Salmonella enterica serovar typhi in asia and molecular mechanism of reduced susceptibility to the fluoroquinolones” (2007)
Converted amounts (≈) assume the structure as drawn.

How the values were obtained:
Format in all cases: functional, Salmonella enterica subsp. enterica serovar Typhi
[1] = system: Salmonella enterica subsp. enterica; assay: Antimicrobial activity against multidrug-resistant Salmonella enterica Serovar Typhi isolate DT2 harboring DNA gyrase A S83F mutation by disk diffusion method in presence of plasmid mediated quinolone-resistant gene qnrA and qnrS
[2] = system: Salmonella enterica subsp. enterica; assay: Antimicrobial activity against multidrug-resistant Salmonella enterica Serovar Typhi isolate B111 harboring DNA gyrase A S83Y mutation by disk diffusion method in presence of plasmid mediated quinolone-resistant gene qnrA and qnrS
[3] = system: Salmonella enterica subsp. enterica; assay: Antimicrobial activity against multidrug-resistant Salmonella enterica Serovar Typhi isolate DT54 harboring DNA gyrase A S83F mutation by disk diffusion method
[4] = system: Salmonella enterica subsp. enterica; assay: Antimicrobial activity against multidrug-resistant Salmonella enterica Serovar Typhi isolate DT9 harboring DNA gyrase A S83F mutation by disk diffusion method
[5] = system: Salmonella enterica subsp. enterica; assay: Antimicrobial activity against Salmonella enterica Serovar Typhi isolate AG259 harboring DNA gyrase A S83F mutation by disk diffusion method in presence of plasmid mediated quinolone-resistant gene qnrA and qnrS
[6] = system: Salmonella enterica subsp. enterica; assay: Antimicrobial activity against multidrug-resistant Salmonella enterica Serovar Typhi isolate DT15 harboring DNA gyrase A S83F mutation by disk diffusion method
[7] = system: Salmonella enterica subsp. enterica; assay: Antimicrobial activity against Salmonella enterica Serovar Typhi isolate CT142 harboring DNA gyrase A S83F mutation by disk diffusion method in presence of plasmid mediated quinolone-resistant gene qnrA and qnrS
[8] = system: Salmonella enterica subsp. enterica; assay: Antimicrobial activity against multidrug-resistant Salmonella enterica Serovar Typhi isolate AG15 harboring DNA gyrase A S83F mutation by disk diffusion method
[9] = system: Salmonella enterica subsp. enterica; assay: Antimicrobial activity against multidrug-resistant Salmonella enterica Serovar Typhi isolate nar 28 harboring DNA gyrase A S83F mutation by disk diffusion method
[10] = system: Salmonella enterica subsp. enterica; assay: Antimicrobial activity against multidrug-resistant Salmonella enterica Serovar Typhi isolate BL 21095 harboring DNA gyrase A S83F mutation by disk diffusion method in presence of plasmid mediated quinolone-resistant gene qnrA and qnrS
[11] = system: Salmonella enterica subsp. enterica; assay: Antimicrobial activity against multidrug-resistant Salmonella enterica Serovar Typhi isolate DT48 harboring DNA gyrase A S83F mutation by disk diffusion method
[12] = system: Salmonella enterica subsp. enterica; assay: Antimicrobial activity against multidrug-resistant Salmonella enterica Serovar Typhi isolate CT118 harboring DNA gyrase A S83F mutation by disk diffusion method in presence of plasmid mediated quinolone-resistant gene qnrA and qnrS
[13] = system: Salmonella enterica subsp. enterica; assay: Antimicrobial activity against Salmonella enterica Serovar Typhi isolate AG258 harboring DNA gyrase A S83F mutation by disk diffusion method in presence of plasmid mediated quinolone-resistant gene qnrA and qnrS
[14] = system: Salmonella enterica subsp. enterica; assay: Antimicrobial activity against Salmonella enterica Serovar Typhi isolate BL 21801 harboring DNA gyrase A S83F mutation by disk diffusion method in presence of plasmid mediated quinolone-resistant gene qnrA and qnrS
[15] = system: Salmonella enterica subsp. enterica; assay: Antimicrobial activity against Salmonella enterica Serovar Typhi isolate C152 harboring DNA gyrase A S83Y mutation by disk diffusion method in presence of plasmid mediated quinolone-resistant gene qnrA and qnrS
[16] = system: Salmonella enterica subsp. enterica; assay: Antimicrobial activity against multidrug-resistant Salmonella enterica Serovar Typhi isolate AG17 harboring DNA gyrase A S83F mutation by disk diffusion method
[17] = system: Salmonella enterica subsp. enterica; assay: Antimicrobial activity against multidrug-resistant Salmonella enterica Serovar Typhi isolate AG176 harboring DNA gyrase A S83F mutation by disk diffusion method
[18] = system: Salmonella enterica subsp. enterica; assay: Antimicrobial activity against Salmonella enterica Serovar Typhi isolate ipt 2 harboring DNA gyrase A D87G mutation by disk diffusion method in presence of plasmid mediated quinolone-resistant gene qnrA and qnrS
[19] = system: Salmonella enterica subsp. enterica; assay: Antimicrobial activity against Salmonella enterica Serovar Typhi isolate nar 108 harboring DNA gyrase A S83F mutation by disk diffusion method in presence of plasmid mediated quinolone-resistant gene qnrA and qnrS
[20] = system: Salmonella enterica subsp. enterica; assay: Antimicrobial activity against multidrug-resistant Salmonella enterica Serovar Typhi isolate nar 46 harboring DNA gyrase A D87G mutation by disk diffusion method
[21] = system: Salmonella enterica subsp. enterica; assay: Antimicrobial activity against multidrug-resistant Salmonella enterica Serovar Typhi isolate DT49 harboring DNA gyrase A S83F mutation by disk diffusion method
[22] = system: Salmonella enterica subsp. enterica; assay: Antimicrobial activity against multidrug-resistant Salmonella enterica Serovar Typhi isolate DT42 harboring DNA gyrase A S83F mutation by disk diffusion method
[23] = system: Salmonella enterica subsp. enterica; assay: Antimicrobial activity against multidrug-resistant Salmonella enterica Serovar Typhi isolate A102 harboring DNA gyrase A S83Y mutation by disk diffusion method in presence of plasmid mediated quinolone-resistant gene qnrA and qnrS
[24] = system: Salmonella enterica subsp. enterica; assay: Antimicrobial activity against multidrug-resistant Salmonella enterica Serovar Typhi isolate DT37 harboring DNA gyrase A S83F mutation by disk diffusion method
[25] = system: Salmonella enterica subsp. enterica; assay: Antimicrobial activity against multidrug-resistant Salmonella enterica Serovar Typhi isolate AG16 harboring DNA gyrase A S83F mutation by disk diffusion method
[26] = system: Salmonella enterica subsp. enterica; assay: Antimicrobial activity against multidrug-resistant Salmonella enterica Serovar Typhi isolate ipt 33 harboring DNA gyrase A S83F mutation by disk diffusion method
[27] = system: Salmonella enterica subsp. enterica; assay: Antimicrobial activity against Salmonella enterica Serovar Typhi isolate D43 harboring DNA gyrase A S83Y mutation by disk diffusion method in presence of plasmid mediated quinolone-resistant gene qnrA and qnrS
[28] = system: Salmonella enterica subsp. enterica; assay: Antimicrobial activity against multidrug-resistant Salmonella enterica Serovar Typhi isolate DT47 harboring DNA gyrase A S83F mutation by disk diffusion method in presence of plasmid mediated quinolone-resistant gene qnrA and qnrS
[29] = system: Salmonella enterica subsp. enterica; assay: Antimicrobial activity against multidrug-resistant Salmonella enterica Serovar Typhi isolate nar 51 harboring DNA gyrase A S83F mutation by disk diffusion method
[30] = system: Salmonella enterica subsp. enterica; assay: Antimicrobial activity against multidrug-resistant Salmonella enterica Serovar Typhi isolate nar 107 harboring DNA gyrase A S83F mutation by disk diffusion method in presence of plasmid mediated quinolone-resistant gene qnrA and qnrS
[31] = system: Salmonella enterica subsp. enterica; assay: Antimicrobial activity against multidrug-resistant Salmonella enterica Serovar Typhi isolate DT60 harboring DNA gyrase A S83F mutation by disk diffusion method
[32] = system: Salmonella enterica subsp. enterica; assay: Antimicrobial activity against multidrug-resistant Salmonella enterica Serovar Typhi isolate AG168 harboring DNA gyrase A S83F mutation by disk diffusion method
[33] = system: Salmonella enterica subsp. enterica; assay: Antimicrobial activity against multidrug-resistant Salmonella enterica Serovar Typhi isolate nar 104 harboring DNA gyrase A S83F mutation by disk diffusion method in presence of plasmid mediated quinolone-resistant gene qnrA and qnrS
[34] = system: Salmonella enterica subsp. enterica; assay: Antimicrobial activity against multidrug-resistant Salmonella enterica Serovar Typhi isolate AG152 harboring DNA gyrase A S83F and D87G mutation by disk diffusion method in presence of plasmid mediated quinolone-resistant gene qnrA and qnrS
[35] = system: Salmonella enterica subsp. enterica; assay: Antimicrobial activity against multidrug-resistant Salmonella enterica Serovar Typhi isolate nar 102 harboring DNA gyrase A S83F mutation by disk diffusion method in presence of plasmid mediated quinolone-resistant gene qnrA and qnrS
[36] = system: Salmonella enterica subsp. enterica; assay: Antimicrobial activity against multidrug-resistant Salmonella enterica Serovar Typhi isolate AG5 harboring DNA gyrase A S83F mutation by disk diffusion method
[37] = system: Salmonella enterica subsp. enterica; assay: Antimicrobial activity against Salmonella enterica Serovar Typhi isolate AG169 harboring DNA gyrase A S83F mutation by disk diffusion method
[38] = system: Salmonella enterica subsp. enterica; assay: Antimicrobial activity against multidrug-resistant Salmonella enterica Serovar Typhi isolate CT61 harboring DNA gyrase A S83F mutation by disk diffusion method in presence of plasmid mediated quinolone-resistant gene qnrA and qnrS
[39] = system: Salmonella enterica subsp. enterica; assay: Antimicrobial activity against multidrug-resistant Salmonella enterica Serovar Typhi isolate AG7 harboring DNA gyrase A S83F mutation by disk diffusion method

Structure (SMILES): CCn1cc(C(=O)O)c(=O)c2ccc(C)nc21 [NALIDIXIC ACID]
- MIC [1]: > 256 µg/mL
- MIC [2]: > 256 µg/mL
- MIC [3]: > 256 µg/mL
- MIC [4]: > 256 µg/mL
- MIC [5]: > 256 µg/mL
- MIC [6]: > 256 µg/mL
- MIC [7]: > 256 µg/mL
- MIC [8]: > 256 µg/mL
- MIC [9]: 256 µg/mL (≈ 1100 µM)
- MIC [10]: > 256 µg/mL
- MIC [11]: > 256 µg/mL
- MIC [12]: > 256 µg/mL
- MIC [13]: > 256 µg/mL
- MIC [14]: > 256 µg/mL
- MIC [15]: > 256 µg/mL
- MIC [16]: > 256 µg/mL
- MIC [17]: > 256 µg/mL
- MIC [18]: 256 µg/mL
- MIC [19]: 256 µg/mL
- MIC [20]: 64 µg/mL (≈ 276 µM)
- MIC [21]: > 256 µg/mL
- MIC [22]: > 256 µg/mL
- MIC [23]: > 256 µg/mL
- MIC [24]: > 256 µg/mL
- MIC [25]: > 256 µg/mL
- MIC [26]: 256 µg/mL (≈ 1100 µM)
- MIC [27]: > 256 µg/mL
- MIC [28]: 128 µg/mL
- MIC [29]: 256 µg/mL (≈ 1100 µM)
- MIC [30]: 256 µg/mL
- MIC [31]: > 256 µg/mL
- MIC [32]: > 256 µg/mL
- MIC [33]: 256 µg/mL
- MIC [34]: > 256 µg/mL
- MIC [35]: 128 µg/mL
- MIC [36]: > 256 µg/mL
- MIC [37]: > 256 µg/mL
- MIC [38]: 256 µg/mL
- MIC [39]: > 256 µg/mL

Structure (SMILES): CC1COc2c(N3CCN(C)CC3)c(F)cc3c(=O)c(C(=O)O)cn1c23 (stereo not drawn) [OFLOXACIN]
- MIC [1]: 2 µg/mL
- MIC [2]: 0.5 µg/mL
- MIC [3]: 1 µg/mL (≈ 2.77 µM)
- MIC [4]: 2 µg/mL (≈ 5.53 µM)
- MIC [5]: 1.5 µg/mL
- MIC [6]: 1 µg/mL (≈ 2.77 µM)
- MIC [7]: 1 µg/mL
- MIC [8]: 1.5 µg/mL (≈ 4.15 µM)
- MIC [9]: 1 µg/mL (≈ 2.77 µM)
- MIC [10]: 0.5 µg/mL
- MIC [11]: 1 µg/mL (≈ 2.77 µM)
- MIC [12]: 1 µg/mL
- MIC [13]: 1.5 µg/mL
- MIC [14]: 0.5 µg/mL
- MIC [15]: 0.5 µg/mL
- MIC [16]: 1.5 µg/mL (≈ 4.15 µM)
- MIC [17]: 0.75 µg/mL (≈ 2.08 µM)
- MIC [18]: 2 µg/mL
- MIC [19]: 1 µg/mL
- MIC [20]: 0.5 µg/mL (≈ 1.38 µM)
- MIC [21]: 1 µg/mL (≈ 2.77 µM)
- MIC [22]: 1 µg/mL (≈ 2.77 µM)
- MIC [23]: 0.5 µg/mL
- MIC [24]: 1 µg/mL (≈ 2.77 µM)
- MIC [25]: 1.5 µg/mL (≈ 4.15 µM)
- MIC [26]: 0.5 µg/mL (≈ 1.38 µM)
- MIC [27]: 0.5 µg/mL
- MIC [28]: 1 µg/mL
- MIC [29]: 1 µg/mL (≈ 2.77 µM)
- MIC [30]: 1 µg/mL
- MIC [31]: 1 µg/mL (≈ 2.77 µM)
- MIC [32]: 1 µg/mL (≈ 2.77 µM)
- MIC [33]: 1 µg/mL
- MIC [34]: 3 µg/mL
- MIC [35]: 1 µg/mL
- MIC [36]: 1 µg/mL (≈ 2.77 µM)
- MIC [37]: 1 µg/mL (≈ 2.77 µM)
- MIC [38]: 1 µg/mL
- MIC [39]: 1.5 µg/mL (≈ 4.15 µM)
